# Measurements published in patent US11932870B2, “Compositions and methods for immune cell modulation in adoptive immunotherapies” (Fate Therapeutics, Inc., priority 2016, dated 2024).
# Assays:
# [1] = system: CAR-T cells co-cultured with irradiated K562 tumor cells that express CD19; assay: In vitro serial killing/re-stimulation assay; assay type: cell-based, human; details: relative to vehicle; FIG. 3C
# Excerpt: An informative clinical parameter that can in some contexts be indicative of likelihood of successful adoptive cell therapy in clinical trials is the ability and extent of expansion of the transferred cells in the patient post-treatment and/or persistence and continued function following initial expansion, e.g., in the context of continued exposure to antigen. The ability of engineered T cells to persist and continue expanding over multiple rounds of antigen stimulation can be indicative of such features and/or likelihood of in vivo function or clinical response. An in vitro serial killing/re-stimulation assay, where the T cells treated by each compound were evaluated for various functions, including expansion and ability to kill tumor cells expressing the target antigen in vitro over multiple rounds of exposure to and withdrawal from antigen, was used as a model system. Such assays were carried out on cells treated with or without compounds, to assess the impact of individual compounds on cell function after repeated encounter with antigen, and cell expansion or persistence in such contexts.
# CD8 T cells were activated, transduced, and expanded in the presence of DMSO, TWS119, or DCC-2036. At the end of the expansion, the CAR-T cells were cryopreserved. The serial re-stimulation assay was performed by thawing the CAR-T cells and co-culturing with irradiated K562 tumor cells that express CD19, the antigen recognized by the CAR. Prior to starting each round of killing, cell numbers were adjusted so that CAR-T cell numbers were substantially the same from the cultures generated with DMSO, TWS119, and DCC-2036 treatment respectively. An equal number of irradiated CD19-expressing K562 target cells were added to the different CAR-T cultures.
# Nalm-6-luc tumor cells = assay: In vivo tumor clearance by compound-treated CD19 CAR-T cells; details: NSG mice with Nalm-6-luc; 2.0×10^5 cryopreserved compound-treated CAR-T cells per animal (1:1 CD4:CD8); imaging; FIGS. 7 and 8
# Protocol: NSG mice were injected with Nalm-6-luc, a CD19+ human tumor line engineered to express firefly luciferase. CAR-T cells were generated from CD4+ and CD8+ T cells that were separately activated and expanded in vitro. The cells were transduced with the CAR-2 construct (FIG. 2) one day after activation and then replated into 24-well GREX plates with or without the compounds. Half the media was replaced every two days thereafter until harvest one week post-activation. Cells were cryopreserved and then thawed for use. NSG mice were infused with tumor cells followed […] by CAR-T transfer via retroorbital injection. Four days after IV. injection with Nalm-6-luc cells, mice were treated with 2.0×10^5 CAR-T cells per animal (1:1 CD4:CD8). The mice were imaged periodically to determine tumor burden.
# [2] = system: CD8 T cells transduced with CAR Construct 1; assay: Tcm phenotype skewing of CAR-T cells (CD62L, CCR7, CD27 surface expression); assay type: cell-based, human; details: flow cytometry day 8
# Protocol: (§1) Culturing cells in large-scale for phenotypic and exhaustion marker evaluation. Isolated CD8 T cells were activated in bulk on day 0 using anti-CD3/anti-CD28 beads in T cell media supplemented with IL-2. On day 1, cells were transduced with the CAR Construct and cell density was adjusted to 0.5×10^6/ml and 10^6 cells were seeded into 12-well plates in the presence of vehicle, TWS119, or DCC-2036. On day 4, cells were transferred into 6-well plates and 2 ml of T cell media was added to each well. On day 6 another 2 ml of media was added to each well. On day 8, CAR T cells were analyzed on a flow cytometer for surface expression of phenotypic markers (CD62L, CCR7, and CD27) and exhaustion markers (PD-1 and Tim-3).
# To determine the effect of compound treatment on skewing towards a central memory phenotype, isolated CD8 T cells were activated in bulk on day 0 using anti-CD3/anti-CD28 beads in T cell media supplemented with IL-2. On day 1, cells were transduced with the CAR Construct 1 shown in FIG. 2 and cell density was adjusted to 0.5×10^6/ml and 10^6 cells were seeded into 12 well plates in the presence of vehicle (DMSO), TWS119 or DCC-2036 at the same concentrations. On day 4, cells were transferred into 6-well plates and 2 ml of media was added to each well. On day 6 another 2 ml of media was added to each well. On day 8, cells were analyzed on a flow cytometer for cell surface expression of CD27.
# The expression of CD27 observed with vehicle treatment was defined as an MFI (mean fluorescence intensity) of 1 and the relative MFI of cells treated with compound was calculated.
# CD8 CAR-T cells = assay: Exhaustion marker expression (PD-1, Tim-3) on CD8 CAR-T cells; assay type: cell-based, human
# Protocol: as §1
# To determine the effect of compound treatment of CAR-T cells on exhaustion marker expression, cells from three different donors were prepared and treated as described in the protocol above. PD-1 and Tim-3 expression was determined using flow cytometry. […] Tim-3 expression was reduced 2-fold with TWS119, and 3.7-fold with DCC-2036 treatment (FIG. 6A).
compound,measurement,setting,value
Nc1cccc(-c2cc3c(Oc4cccc(O)c4)ncnc3[nH]2)c1 [TWS119],cell number expansion of CAR-T cells in rounds 3 and 4 of the serial re-stimulation assay,[1],modest increase in expansion relative to vehicle
same,tumor burden / tumor control,Nalm-6-luc tumor cells,minimal tumor control
same,increase in the frequency of CAR-T cells expressing both CD62L and CCR7,"[2]; relative to vehicle (DMSO), FIG. 4A",1.7 fold
same,increase in the expression of the differentiation marker CD27 (relative MFI),"[2]; relative to vehicle (MFI defined as 1), FIG. 4B",did not have an effect
same,expression of T cell exhaustion marker Tim-3,"CD8 CAR-T cells; CD8 T cells at one week post activation, relative to DMSO, FIG. 6A",reduced expression
same,expression of T cell exhaustion marker PD-1,"CD8 CAR-T cells; CD8 T cells at one week post activation, relative to DMSO, FIG. 6B",reduced expression
same,reduction of Tim-3 expression,"CD8 CAR-T cells; relative to vehicle, three donors, FIG. 6A",2 fold
same,decrease in PD-1 surface expression,"CD8 CAR-T cells; relative to vehicle, three donors, FIG. 6B",3.3 fold
